{
  "source": "patent US20130059814A1",
  "about": "“ANTI-INFLAMMATORY DERMATOLOGICAL COMPOSITION COMPRISING CORTICOSTEROIDS AND HYALURONATE FRAGMENTS, AND USES THEREOF” (priority 2007, published 2013)",
  "key": {"Hairless SKH mice": {"test_system": "Hairless SKH mice", "assay": "Skin atrophy protocol: dermis-epidermis thickness after topical corticosteroid with or without HA fragments", "type": "in vivo", "description": "Hairless SKH mice received twice daily for 5 days a topical treatment on the back with a steroid (0.05% clobetasol propionate or 0.1% desonide) with or without HA fragments (with a molecular weight comprised between 20 and 500 kDa, and obtained by the method including the treatment steps with ultrasound and filtering as described above). These fragments will be designated in the following examples by HAF. Dermal and epidermal atrophy and the concentration of skin hyaluronate were respectively determined by measuring the dermis-epidermis thickness in optical microscopy and by ELISA.\nThe epidermal and cutaneous (distance between the granular layer and the sweating glands) thicknesses were measured by an ocular micrometer. Ten measurements were made per mouse. The prevention index is the ratio between the control treated with clobetasol propionate (PC) alone and the PC +HAF composition.\nThe epidermal thickness was measured with an ocular micrometer after treatment with different desonide concentrations. Ten measurements were made per mouse. The prevention index is the ratio, at a determined corticosteroid concentration, between the control treated by the corticosteroid alone and by the corticosteroid composition+HAF.\nThe epidermal thickness was measured with an ocular micrometer after treatment with different corticosteroids. Ten measurements were made per mouse. The prevention index is the ratio between the control treated by the corticosteroid alone and the corresponding composition comprising the HAFs.\nThe non-treated hyaluronic acid, the fragments obtained by action of hyaluronidase, as well as the HAFs were compared for their preventive effects. The epidermal thickness was measured with an ocular micrometer. Ten measurements were made per mouse. The prevention index is the ratio between the control treated with the corticosteroid alone and with each corticosteroid composition+HAF."}, "hairless SKH1 mice": {"test_system": "hairless SKH1 mice", "conditions": "JEADV 19: 124, 2005; cited from earlier work"}, "C57B1/6 mice": {"test_system": "C57B1/6 mice", "assay": "Inflammation induced by TPA in the ear of mice: epidermis and dermis thickness, dermal cellularity", "type": "in vivo", "conditions": "0.005% TPA on ears, PC 0.05%, HAF 1%, 4 days", "protocol": "(§1) Skin inflammation was induced by topical application of 0.005% TPA (12-o-tetradecanoylphorbol-13-acetate) in acetone, on the ears of C57B1/6 mice; the control animals received the same volume of acetone. Clobetasol propionate (0.05%) and the HAFs (1%) were dissolved in 100 μL of carrier, and were applied together with TPA for 4 days; the control animals received the same volume of carrier. The inflammation was determined by measuring the thickness of the ears with a clip and the dermis-epidermis thickness in optical microscopy and by assaying myeloperoxidase activity. The animals were sacrificed 24 hrs after the last application. 6 mm biopsies were sampled, frozen in liquid nitrogen and then stored at −70° C. until the day of the analysis. The remainder of the tissue was set with formol and analyzed by immunohistology.\nThe epidermal inflammation induced by the application of Phorbol TPA ester was measured, after application of TPA, and then after treatment with clobetasol propionate, and after treatment with the composition comprising clobetasol propionate and HAFs. Ten measurements were made per mouse. The anti-inflammation index is the ratio between the control treated with TPA, and with the composition TPA+PC or TPA+PC+HAF.\nThe dermal inflammation induced by applying Phorbol TPA ester was measured, after application of TPA, and then after treatment with clobetasol propionate and after treatment with the composition comprising clobetasol propionate and HAFs. Ten measurements were made per mouse, the results are grouped in the Table 6 below. The anti-inflammation index in the ratio between the control treated with TPA, and with the association TPA+PC or TPA+PC+HAF.\nDermal cellularity induced by applying Phorbol TPA ester was measured, after application of TPA, and then after treatment with clobetasol propionate, and after treatment with the composition comprising clobetasol propionate and HAFs. Ten measurements were made per mouse. The anti-inflammation index is the ratio between the control treated with TPA, and with the association TPA+PC or TPA+PC+HAF."}, "myeloperoxidase": {"test_system": "myeloperoxidase", "assay": "Myeloperoxidase activity in supernatant of homogenates of TPA-treated ear biopsies", "type": "in vivo, mice", "conditions": "0.005% TPA on ears, PC 0.05%, HAF 1%, 4 days", "protocol": "as §1\nThe myeloperoxidase activity was determined in the supernatant of the homogenates of the ear biopsies. […] The enzymatic activity of myeloperoxidase was determined according to the method of Bradley et al., modified for using the photometric plate reader. […] The optical density was measured at 450 nm. […] The expression of CD44, CD44v3 and pro-HB-EGF was analyzed by immunohistochemistry and by Western blotting according to methods already described (PLoS Med 3 (12): e493, 2006). […]"}, "[1]": {"conditions": "Table 3: corticosteroid 0.05%, with or without HAF"}},
  "data": [
    {"smiles": "CC1(C)O[C@@H]2C[C@H]3[C@@H]4CCC5=CC(=O)C=C[C@]5(C)[C@H]4[C@@H](O)C[C@]3(C)[C@]2(C(=O)CO)O1", "note": "[Desonide, desonide]", "values": [
      {"measurement": "Epidermal thickness % of non-treated control", "setting": "Hairless SKH mice; Desonide 0.025%, HAF 0 or 1%", "result": "72 % of non-treated control"},
      {"measurement": "Epidermal thickness % of non-treated control", "setting": "Hairless SKH mice; Desonide 0.05%, HAF 0 or 1%", "result": "62 % of non-treated control"},
      {"measurement": "Epidermal thickness % of non-treated control", "setting": "Hairless SKH mice; Desonide 0.075%, HAF 0", "result": "55 % of non-treated control"},
      {"measurement": "Epidermal thickness % of non-treated control", "setting": "Hairless SKH mice; Desonide 0.1%, HAF 0 or 1%", "result": "46 % of non-treated control"},
      {"measurement": "Epidermal thickness % of non-treated control", "setting": "Hairless SKH mice; [1]", "result": "62 % of non-treated control"},
      {"measurement": "Epidermal thickness % of non-treated control", "setting": "Hairless SKH mice; Table 4: Desonide 0.1% alone or with HA form", "result": "46 % of non-treated control"}
    ]},
    {"smiles": "CC1=C(/C=C/C(C)=C/C=C/C(C)=C/C=O)C(C)(C)CCC1", "note": "[retinaldehyde]", "values": [
      {"measurement": "Prevention of epidermal atrophy induced by clobetasol propionate", "setting": "hairless SKH1 mice", "result": "prevents epidermal atrophy induced by a corticosteroid, clobetasol propionate"}
    ]},
    {"smiles": "CCC(=O)O[C@]1(C(=O)CCl)[C@@H](C)C[C@H]2[C@@H]3CCC4=CC(=O)C=C[C@]4(C)[C@@]3(F)[C@@H](O)C[C@@]21C", "note": "[PC, clobetasol propionate]", "values": [
      {"measurement": "Cutaneous thickness % of non-treated control", "setting": "Hairless SKH mice; PC 0.05%, HAF 1% where present, distance between granular layer and sweating glands", "result": "56 % of non-treated control"},
      {"measurement": "Epidermal thickness % of non-treated control", "setting": "Hairless SKH mice; PC 0.05%, HAF 1% where present, topical on the back twice daily for 5 days", "result": "33 % of non-treated control"},
      {"measurement": "Epidermal thickness % of non-treated control", "setting": "Hairless SKH mice; [1]", "result": "28 % of non-treated control"},
      {"measurement": "Epidermal thickness % of non-treated control", "setting": "Hairless SKH mice; Table 4: 0.05% Clobetasol alone or with HA form", "result": "28 % of non-treated control"}
    ]},
    {"smiles": "CCCCCCCCCCCCCC(=O)O[C@@H]1[C@@H](C)[C@@]2(O)[C@@H](C=C(CO)C[C@]3(O)C(=O)C(C)=C[C@@H]23)[C@@H]2C(C)(C)[C@]12OC(C)=O", "note": "[TPA, 12-o-tetradecanoylphorbol-13-acetate]", "values": [
      {"measurement": "Dermal cellularity % of control", "setting": "C57B1/6 mice", "result": "789 % of control"},
      {"measurement": "Dermis inflammation % of non-treated control", "setting": "C57B1/6 mice", "result": "226 % of non-treated control"},
      {"measurement": "Epidermis inflammation % of control", "setting": "C57B1/6 mice", "result": "438 % of control"},
      {"measurement": "myeloperoxidase % of control", "setting": "myeloperoxidase", "result": "3273 % of control"}
    ]},
    {"smiles": "C[C@H]1C[C@H]2[C@@H]3CCC4=CC(=O)C=C[C@]4(C)[C@@]3(F)[C@@H](O)C[C@]2(C)[C@@]1(O)C(=O)CO", "note": "[Betamethasone]", "values": [
      {"measurement": "Epidermal thickness % of non-treated control", "setting": "Hairless SKH mice; [1]", "result": "53 % of non-treated control"}
    ]}
  ]
}
